Source: patent US7332501B2, “Indol-3-yl-carbonyl-spiro-piperidine derivatives as V1a receptor antagonists” (Hoffmann-La Roche Inc., priority 2005, dated 2008)

Biological target: T1, human V1a receptor (Homo sapiens, UniProt P37288)
T1 construct: expressed in transfected cells; host or cells: HEK293 cells, transiently transfected; cell membranes
Experiment: human V1a receptor binding (3H-Vasopressin SPA, HEK293 membranes)
Conditions: displacement of 4 nM 3H-Vasopressin, membranes of HEK293 cells transiently transfected with human V1a receptor; Ki from IC50 by Cheng-Prussoff
Outline: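 Transiently transfected HEK293 membranes on yttrium silicate SPA beads in Tris binding buffer (120 mM NaCl, 5 mM KCl, 2 mM CaCl2, 10 mM MgCl2). 3H-vasopressin added as 4 nM working solution; excess cold vasopressin set non-specific binding. 1 h at room temperature, then counting; Ki from fitted IC50 via Cheng-Prusoff.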

T1 sequence (P37288 whole entry): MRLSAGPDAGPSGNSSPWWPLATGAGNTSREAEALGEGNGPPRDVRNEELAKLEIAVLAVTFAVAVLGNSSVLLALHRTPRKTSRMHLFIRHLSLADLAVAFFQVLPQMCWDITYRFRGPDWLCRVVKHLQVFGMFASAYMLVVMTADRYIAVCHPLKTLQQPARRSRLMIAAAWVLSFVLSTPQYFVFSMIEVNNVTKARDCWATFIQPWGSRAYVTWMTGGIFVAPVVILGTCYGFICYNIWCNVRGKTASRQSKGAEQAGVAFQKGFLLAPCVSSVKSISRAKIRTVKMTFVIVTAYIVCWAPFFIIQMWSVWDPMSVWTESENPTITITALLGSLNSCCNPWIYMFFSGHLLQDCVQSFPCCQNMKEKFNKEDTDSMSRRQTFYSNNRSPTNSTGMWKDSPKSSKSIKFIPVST

| Compound | Ki |
| --- | --- |
| O=C(Cn1cc(C(=O)N2CCC3(CC2)OC(=O)c2ccccc23)c2ccc(Cl)cc21)c1ccc(F)c(F)c1 [Example 154, 1′-({6-Chloro-1-[2-(3,4-difluorophenyl)-2-oxoethyl]-1H-indol-3-yl}carbonyl)-3H-spiro[2-benzofuran-1,4′-piperidin]-3-one] | 1.3 nM |
| O=C1OC2(CCN(C(=O)c3cn(-c4ccccc4-c4ccccc4)c4cc(Cl)ccc34)CC2)c2ccccc21 [Example 157, 1′-[(1-Biphenyl-2-yl-6-chloro-1H-indol-3-yl)carbonyl]-3H-spiro[2-benzofuran-1,4′-piperidin]-3-one] | 39.8 nM |
| O=C1OC2(CCN(C(=O)c3cn(C(=O)c4cccc(-c5ccccc5)c4)c4cc(Cl)ccc34)CC2)c2ccccc21 [Example 158, 1′-{[1-(Biphenyl-3-ylcarbonyl)-6-chloro-1H-indol-3-yl]carbonyl}-3H-spiro[2-benzofuran-1,4′-piperidin]-3-one] | 38.7 nM |
| COCc1ncc(Cn2cc(C(=O)N3CCC4(CC3)OC(=O)c3cc(F)ccc34)c3ccc(Cl)cc32)c(N)n1 [Example 162, 1′-[(1-{[4-Amino-2-(methoxymethyl)pyrimidin-5-yl]methyl}-6-chloro-1H-indol-3-yl)carbonyl]-5-fluoro-3H-spiro[2-benzofuran-1,4′-piperidin]-3-one] | 65.3 nM |
| Cc1ncc(Cn2cc(C(=O)N3CCC4(CC3)OC(=O)c3cc(F)ccc34)c3ccc(Cl)cc32)c(N)n1 [Example 163, 1′-({1-[(4-Amino-2-methylpyrimidin-5-yl)methyl]-6-chloro-1H-indol-3-yl}carbonyl)-5-fluoro-3H-spiro[2-benzofuran-1,4′-piperidin]-3-one] | 15.3 nM |
| O=C1OC2(CCN(C(=O)c3cn(Cc4ccc(Cl)nc4)c4cc(Cl)ccc34)CC2)c2ccc(F)cc21 [Example 164, 1′-({6-Chloro-1-[(6-chloropyridin-3-yl)methyl]-1H-indol-3-yl}carbonyl)-5-fluoro-3H-spiro[2-benzofuran-1,4′-piperidin]-3-one] | 2.9 nM |
| Cc1cc(Cn2cc(C(=O)N3CCC4(CC3)OC(=O)c3cc(F)ccc34)c3ccc(Cl)cc32)c(Cl)nn1 [Example 165, 1′-({6-Chloro-1-[(3-chloro-6-methylpyridazin-4-yl)methyl]-1H-indol-3-yl}carbonyl)-5-fluoro-3H-spiro[2-benzofuran-1,4′-piperidin]-3-one] | 4.3 nM |
| O=C1OC2(CCN(C(=O)c3cn(Cc4ccncc4)c4cc(Cl)ccc34)CC2)c2ccccc21 [Example 168, 1′-{[6-Chloro-1-(pyridin-4-ylmethyl)-1H-indol-3-yl]carbonyl}-3H-spiro[2-benzofuran-1,4′-piperidin]-3-one] | 2.4 nM |
| Cc1oc(-c2ccccc2)nc1C(=O)Cn1cc(C(=O)N2CCC3(CC2)OC(=O)c2cc(F)ccc23)c2ccc(Cl)cc21 [Example 170, 1′-({6-Chloro-1-[2-(5-methyl-2-phenyl-1,3-oxazol-4-yl)-2-oxoethyl]-1H-indol-3-yl}carbonyl)-5-fluoro-3H-spiro[2-benzofuran-1,4′-piperidin]-3-one] | 2.2 nM |
| O=C1OC2(CCN(C(=O)c3cn(Cc4ccccn4)c4cc(Cl)ccc34)CC2)c2ccc(F)cc21 [Example 171, 1′-{[6-Chloro-1-(pyridin-2-ylmethyl)-1H-indol-3-yl]carbonyl}-5-fluoro-3H-spiro[2-benzofuran-1,4′-piperidin]-3-one] | 2.7 nM |
| O=C1OC2(CCN(C(=O)c3cn(Cc4cccnc4)c4cc(Cl)ccc34)CC2)c2ccccc21 [Example 172, 1′-{[6-Chloro-1-(pyridin-3-ylmethyl)-1H-indol-3-yl]carbonyl}-3H-spiro[2-benzofuran-1,4′-piperidin]-3-one] | 3 nM |
| O=C1OC2(CCN(C(=O)c3cn(Cc4cncnc4)c4cc(Cl)ccc34)CC2)c2ccc(F)cc21 [Example 174, 1′-{[6-Chloro-1-(pyrimidin-5-ylmethyl)-1H-indol-3-yl]carbonyl}-5-fluoro-3H-spiro[2-benzofuran-1,4′-piperidin]-3-one] | 2.6 nM |
| N#CCCn1cc(C(=O)N2CCC3(CC2)OC(=O)c2cc(F)ccc23)c2ccc(Cl)cc21 [Example 175, 3-{6-Chloro-3-[(5-fluoro-3-oxo-1′H,3H-spiro[2-benzofuran-1,4′-piperidin]-1′-yl)carbonyl]-1H-indol-1-yl}propanenitrile] | 2.5 nM |
| O=C1OC2(CCN(C(=O)c3c4n(c5cc(Cl)ccc35)CCNC4=O)CC2)c2ccc(F)cc21 [Example 176, 1′-[(7-Chloro-1-oxo-1,2,3,4-tetrahydropyrazino[1,2-a]indol-10-yl)carbonyl]-5-fluoro-3H-spiro[2-benzofuran-1,4′-piperidin]-3-one] | 14.8 nM |
| O=C1OC2(CCN(C(=O)c3cn(CC4CN(Cc5ccccc5)CCO4)c4cc(Cl)ccc34)CC2)c2ccc(F)cc21 (centres unmarked) [Example 177, 1′-({1-[(4-Benzylmorpholin-2-yl)methyl]-6-chloro-1H-indol-3-yl}carbonyl)-5-fluoro-3H-spiro[2-benzofuran-1,4′-piperidin]-3-one] | 6.9 nM |

Now from value to compound:

| Ki | Compound |
| --- | --- |
| 5 nM | O=C1OC2(CCN(C(=O)c3cn(-c4cccc(F)c4)c4cc(Cl)ccc34)CC2)c2ccccc21 [Example 155, 1′-{[6-Chloro-1-(3-fluorophenyl)-1H-indol-3-yl]carbonyl}-3H-spiro[2-benzofuran-1,4′-piperidin]-3-one] |
| 7.6 nM | O=C1OC2(CCN(C(=O)c3cn(-c4ccccn4)c4cc(Cl)ccc34)CC2)c2ccccc21 [Example 159, 1-[(6-Chloro-1-pyridin-2-yl-1H-indol-3-yl)carbonyl]-3H-spiro[2-benzofuran-1,4′-piperidin]-3-one] |
| 5 nM | O=C1OC2(CCN(C(=O)c3cn(-c4ccccn4)c4cc(Cl)ccc34)CC2)c2ccc(F)cc21 [Example 160, 1-[(6-Chloro-1-pyridin-2-yl-1H-indol-3-yl)carbonyl]-5-fluoro-3H-spiro[2-benzofuran-1,4′-piperidin]-3-one] |
| 2.2 nM | Cc1cc(Cn2cc(C(=O)N3CCC4(CC3)OC(=O)c3cc(F)ccc34)c3ccc(Cl)cc32)ccn1 [Example 161, 1′-({6-Chloro-1-[(2-methylpyridin-4-yl)methyl]-1H-indol-3-yl}carbonyl)-5-fluoro-3H-spiro[2-benzofuran-1,4′-piperidin]-3-one] |
| 2.4 nM | O=C1OC2(CCN(C(=O)c3cn(Cc4ccncc4)c4cc(Cl)ccc34)CC2)c2ccc(F)cc21 [Example 166, 1′-{[6-Chloro-1-(pyridin-4-ylmethyl)-1H-indol-3-yl]carbonyl}-5-fluoro-3H-spiro[2-benzofuran-1,4′-piperidin]-3-one] |
| 3 nM | O=C1OC2(CCN(C(=O)c3cn(CCc4ccncc4)c4cc(Cl)ccc34)CC2)c2ccc(F)cc21 [Example 167, 1′-{[6-Chloro-1-(2-pyridin-4-ylethyl)-1H-indol-3-yl]carbonyl}-5-fluoro-3H-spiro[2-benzofuran-1,4′-piperidin]-3-one] |
| 1.5 nM | O=C(Cn1cc(C(=O)N2CCC3(CC2)OC(=O)c2cc(F)ccc23)c2ccc(Cl)cc21)c1ccccn1 [Example 169, 1′-{[6-Chloro-1-(2-oxo-2-pyridin-2-ylethyl)-1H-indol-3-yl]carbonyl}-5-fluoro-3H-spiro[2-benzofuran-1,4′-piperidin]-3-one] |
| 2.3 nM | O=C1OC2(CCN(C(=O)c3cn(Cc4cnccn4)c4cc(Cl)ccc34)CC2)c2ccc(F)cc21 [Example 173, 1′-{[6-Chloro-1-(pyrazin-2-ylmethyl)-1H-indol-3-yl]carbonyl}-5-fluoro-3H-spiro[2-benzofuran-1,4′-piperidin]-3-one] |
